Experimental data reported in patent US11634397B2, “Process and intermediates for the preparation of Fluensulfone” (ADAMA MAKHTESHIM LTD., priority 2018, dated 2023).

Experiment: Solubility of 2-mercaptothiazole estimated in a variety of solvents at room temperature
Type: physicochemical
Conditions: stirred overnight
Method: The solubility of 2-mercaptothiazole was estimated in a variety of solvents at room temperature. Large amount of 2-mercaptothiazole was added to the tested solvent. The mixture was stirred overnight. The residual solid was removed by filtration. Then the solution was analyzed by quantitative analysis vs. analytical standard to determine the concentration of the 2-mercaptothiazole.

Sc1nccs1 [2-mercaptothiazole]
Solubility of 2-mercaptothiazole (solvent 1,2-dichlorobenzene): 1.91 wt %
Solubility of 2-mercaptothiazole (solvent 1,2-dichloroethane): 8.43 wt %
Solubility of 2-mercaptothiazole (solvent CPME (cyclopentyl methyl ether)): 6.5 wt %
Solubility of 2-mercaptothiazole (solvent IBN (iso-butyronitrile)): 20.2 wt %
Solubility of 2-mercaptothiazole (solvent IPAc (isopropyl acetate)): 14.8 wt %
Solubility of 2-mercaptothiazole (solvent MCB (mono-chlorobenzene)): 2.4 wt %
Solubility of 2-mercaptothiazole (solvent NBN (n-butyronitrile)): 28.9 wt %
Solubility of 2-mercaptothiazole (solvent pentanol): 19.1 wt %
Solubility of 2-mercaptothiazole (solvent toluene): 2.2 wt %
